Data reported in publication PMC6234012 (Nature structural & molecular biology, 2018).
No end group written: not given here.

Key:
Ku = details: fluorescence polarization with labelled peptides; cited from earlier work
Ku80 = details: yeast two-hybrid experiments or EMSA; cited from earlier work
[1] = tested on: DSBs sites in XLF-defective BuS cells; experiment: Live cell recruitment of CFP-XLF to laser sites, BuS cells; format: cell-based, human; details: for Recruitment to laser-irradiated sites, full-length XLF: CFP-XLF in BuS cells, n=20 cells, WT vs L297W p=0.0093, WT vs L297E p<0.0001
[2] = molecular target: KuFL (full length Ku70/Ku80) (Homo sapiens, UniProt P12956+P13010); experiment: ITC, ligand into KuFL; format: binding; details: 25°C, pH 8.0, KuFL in cell, line 9 deduced from the first injection point
Sequence of KuFL (full length Ku70/Ku80) (P13010 whole entry): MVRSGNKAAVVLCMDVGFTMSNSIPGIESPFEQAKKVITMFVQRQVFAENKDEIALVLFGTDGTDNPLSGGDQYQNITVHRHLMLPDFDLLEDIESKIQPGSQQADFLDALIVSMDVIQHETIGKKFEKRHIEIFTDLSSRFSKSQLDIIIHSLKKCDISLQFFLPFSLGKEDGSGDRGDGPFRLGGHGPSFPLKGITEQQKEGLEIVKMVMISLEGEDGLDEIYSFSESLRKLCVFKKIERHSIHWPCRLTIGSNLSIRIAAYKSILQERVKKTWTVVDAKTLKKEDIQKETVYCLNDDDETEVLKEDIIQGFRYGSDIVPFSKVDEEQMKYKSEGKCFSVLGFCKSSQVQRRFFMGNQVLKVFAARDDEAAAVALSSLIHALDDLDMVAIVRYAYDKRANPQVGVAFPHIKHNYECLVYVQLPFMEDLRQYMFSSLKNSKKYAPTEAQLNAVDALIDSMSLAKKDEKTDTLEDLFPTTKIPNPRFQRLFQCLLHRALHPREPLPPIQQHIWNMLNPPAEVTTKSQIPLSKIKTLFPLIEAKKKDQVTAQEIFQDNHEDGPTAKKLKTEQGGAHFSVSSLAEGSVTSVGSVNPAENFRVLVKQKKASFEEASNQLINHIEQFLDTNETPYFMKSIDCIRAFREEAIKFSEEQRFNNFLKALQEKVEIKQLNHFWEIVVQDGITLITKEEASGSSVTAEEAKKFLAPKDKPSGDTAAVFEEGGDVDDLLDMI
Sequence of KuFL (full length Ku70/Ku80) (P12956 whole entry): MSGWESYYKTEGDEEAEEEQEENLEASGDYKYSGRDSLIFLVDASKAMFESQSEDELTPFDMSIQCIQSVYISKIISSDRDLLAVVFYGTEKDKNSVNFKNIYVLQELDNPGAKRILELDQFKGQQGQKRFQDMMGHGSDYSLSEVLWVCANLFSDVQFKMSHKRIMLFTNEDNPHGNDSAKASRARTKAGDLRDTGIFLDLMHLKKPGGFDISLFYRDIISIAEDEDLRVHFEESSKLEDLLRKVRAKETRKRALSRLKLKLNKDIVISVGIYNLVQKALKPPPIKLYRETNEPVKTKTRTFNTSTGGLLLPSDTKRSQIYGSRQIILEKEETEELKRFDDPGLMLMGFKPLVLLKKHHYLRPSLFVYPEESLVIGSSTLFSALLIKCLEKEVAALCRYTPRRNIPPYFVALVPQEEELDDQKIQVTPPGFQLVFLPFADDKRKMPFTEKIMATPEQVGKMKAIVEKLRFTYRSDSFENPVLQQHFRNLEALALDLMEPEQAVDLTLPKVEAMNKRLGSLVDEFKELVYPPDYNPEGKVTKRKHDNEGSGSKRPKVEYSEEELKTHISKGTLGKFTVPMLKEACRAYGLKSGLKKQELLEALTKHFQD

[3] = molecular target: Ku70 full length;Ku80 full length;XLF full length (human?;human?;human?, UniProt P12956;P13010;Q9H9Q4 1-609;1-732;1-299, ||); experiment: EMSA
Sequence of Ku70 full length;Ku80 full length;XLF full length (P12956 whole entry, chain 1 of 3): as the sequence (P12956 whole entry) above
Sequence of Ku70 full length;Ku80 full length;XLF full length (P13010 whole entry, chain 2 of 3): as the sequence (P13010 whole entry) above
Sequence of Ku70 full length;Ku80 full length;XLF full length (Q9H9Q4 whole entry, chain 3 of 3): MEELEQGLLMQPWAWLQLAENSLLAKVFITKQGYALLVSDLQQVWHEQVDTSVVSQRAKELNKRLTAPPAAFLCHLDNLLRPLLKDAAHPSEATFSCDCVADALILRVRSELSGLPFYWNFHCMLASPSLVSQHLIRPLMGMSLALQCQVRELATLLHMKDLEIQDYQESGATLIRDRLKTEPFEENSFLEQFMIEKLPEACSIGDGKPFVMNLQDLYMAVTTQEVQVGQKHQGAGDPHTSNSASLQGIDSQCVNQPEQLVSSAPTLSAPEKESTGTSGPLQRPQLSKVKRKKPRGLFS

[4] = molecular target: T1, Ku70 full length;Ku80 full length (human?;human?, UniProt P12956;P13010 1-609;1-732, |); experiment: switchSENSE
T1 sequence (P12956 whole entry, chain 1 of 2): as the sequence (P12956 whole entry) above
T1 sequence (P13010 whole entry, chain 2 of 2): as the sequence (P13010 whole entry) above

[5] = molecular target: T1, Ku70 full length;Ku80 full length; experiment: ITC
[6] = molecular target: Ku70cc;Ku80cc;pAPLF (A-KBM peptide) (human?;human?;human?, UniProt P12956;P13010;Q8IW19 1-544;1-551;174-191, ||); experiment: X-ray crystallography 3.0 A
Sequence of Ku70cc;Ku80cc;pAPLF (A-KBM peptide) (P12956 1-544, chain 1 of 2): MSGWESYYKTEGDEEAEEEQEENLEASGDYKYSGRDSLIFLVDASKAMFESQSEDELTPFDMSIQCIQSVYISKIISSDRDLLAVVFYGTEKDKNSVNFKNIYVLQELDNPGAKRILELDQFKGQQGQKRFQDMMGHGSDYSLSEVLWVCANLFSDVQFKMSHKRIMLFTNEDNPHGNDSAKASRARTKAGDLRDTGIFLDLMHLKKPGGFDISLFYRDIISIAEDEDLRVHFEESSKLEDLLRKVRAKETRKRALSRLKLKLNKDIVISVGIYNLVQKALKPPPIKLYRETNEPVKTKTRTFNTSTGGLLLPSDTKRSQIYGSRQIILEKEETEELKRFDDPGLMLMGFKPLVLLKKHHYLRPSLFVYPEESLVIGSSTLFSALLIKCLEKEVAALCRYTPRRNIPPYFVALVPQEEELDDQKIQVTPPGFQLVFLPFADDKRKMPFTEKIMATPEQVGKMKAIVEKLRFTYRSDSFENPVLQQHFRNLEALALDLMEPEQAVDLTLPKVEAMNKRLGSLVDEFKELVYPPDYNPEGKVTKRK
Sequence of Ku70cc;Ku80cc;pAPLF (A-KBM peptide) (P13010 1-551, chain 2 of 2): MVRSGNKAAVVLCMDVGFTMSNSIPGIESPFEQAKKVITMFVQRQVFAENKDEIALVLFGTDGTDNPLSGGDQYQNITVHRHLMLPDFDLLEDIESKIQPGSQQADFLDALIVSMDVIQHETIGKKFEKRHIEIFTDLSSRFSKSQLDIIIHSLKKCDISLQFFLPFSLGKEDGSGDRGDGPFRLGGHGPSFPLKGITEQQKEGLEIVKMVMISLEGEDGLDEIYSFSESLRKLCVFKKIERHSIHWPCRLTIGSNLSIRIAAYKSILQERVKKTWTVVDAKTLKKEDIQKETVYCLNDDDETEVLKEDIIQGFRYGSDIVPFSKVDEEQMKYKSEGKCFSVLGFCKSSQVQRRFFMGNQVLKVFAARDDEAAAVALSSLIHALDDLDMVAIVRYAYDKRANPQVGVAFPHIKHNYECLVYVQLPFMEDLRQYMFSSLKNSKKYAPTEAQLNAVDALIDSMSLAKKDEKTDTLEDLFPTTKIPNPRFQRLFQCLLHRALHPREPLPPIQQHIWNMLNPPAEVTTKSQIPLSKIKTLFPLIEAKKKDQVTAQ

[7] = molecular target: Ku70cc;Ku80cc;pXLF (long X-KBM peptide) (human?;human?;human?, UniProt P12956;P13010;Q9H9Q4 1-544;1-551;281-299, ||); experiment: X-ray crystallography 2.8 A
Sequence of Ku70cc;Ku80cc;pXLF (long X-KBM peptide) (P12956 1-544, chain 1 of 2): as the sequence (P12956 1-544, chain 1 of 2) above
Sequence of Ku70cc;Ku80cc;pXLF (long X-KBM peptide) (P13010 1-551, chain 2 of 2): as the sequence (P13010 1-551, chain 2 of 2) above

[8] = molecular target: Ku70cc;Ku80cc;pXLFs (short X-KBM peptide) (human?;human?;human?, UniProt P12956;P13010;Q9H9Q4 1-544;1-551;287-299, ||); experiment: X-ray crystallography 2.9 A
Sequence of Ku70cc;Ku80cc;pXLFs (short X-KBM peptide) (P12956 1-544, chain 1 of 2): as the sequence (P12956 1-544, chain 1 of 2) above
Sequence of Ku70cc;Ku80cc;pXLFs (short X-KBM peptide) (P13010 1-551, chain 2 of 2): as the sequence (P13010 1-551, chain 2 of 2) above

CC(C)C[C@H](NC(=O)CNC(=O)[C@H](CCCNC(=N)N)NC(=O)[C@@H]1CCCN1C(=O)[C@H](CCCCN)NC(=O)[C@H](CCCCN)NC(=O)[C@H](CCCNC(=N)N)NC(=O)[C@H](CCCCN)NC(=O)[C@@H](NC(=O)[C@H](CCCCN)NC(=O)[C@H](CO)NC(=O)[C@H](CC(C)C)NC(=O)[C@H](CCC(N)=O)NC(=O)[C@@H]1CCCN1C(=O)[C@H](CCCNC(=N)N)NC(=O)[C@H](CCC(N)=O)NC(=O)[C@@H](N)CC(C)C)C(C)C)C(=O)N[C@@H](Cc1ccccc1)C(=O)N[C@@H](CO)C(=O)O [pXLF]
Interaction detected (Ku): not detected

APLF: APTX and PNKP-like factor
Effect of Ku80 mutations at L68, Y74, I112 on interaction with APLF (Ku80): greatly reduce or disrupt the interactions

F298G: XLF mutant in the extreme C-terminus
Recruitment to laser-irradiated sites, full-length XLF [1]: important reduction of the recruitment

G296W: XLF mutant in the extreme C-terminus
Recruitment to laser-irradiated sites, full-length XLF [1]: important reduction of the recruitment

L115D XLF: XLF mutant unable to interact with XRCC4
Recruitment to laser-irradiated sites, full-length XLF [1]: efficient recruitment
Effect of APLF knock-down on XLF recruitment ([1]; CFP-XLF, APLF knock-down): insensitive to APLF knock-down

LQRPQLSKVKRKKPRGWFS [pXLF(LW)]
ΔH [2]: -12.1 ± 2.0 kcal/M

S299E: XLF mutant in the extreme C-terminus
Recruitment to laser-irradiated sites, full-length XLF [1]: important reduction of the recruitment

XLF L115D/L297E: XLF L115D/L297E double mutant
Recruitment to laser-irradiated sites, full-length XLF [1]: impaired

B1: 50bp DNA (MM 50bp up/do) (dsDNA)
DNA 1: TAAATGCCAATGCTGCTGATACGTACTCGGACTGATTCGGAACTGTAACG
DNA 2: CGTTACAGTTCCGAATCAGTCCGAGTACGTATCAGCAGCATTGGCATTTA
binding result [3]: binds

B2: 48bp DNA nanolever (NLB48) (dsDNA)
DNA 1: TAGTCGTAAGCTGATATGGCTGATTAGTCGGAAGCATCGAACGCTGAT
DNA 2: ATCAGCGTTCGATGCTTCCGACTAATCAGCCATATCAGCTTACGACTA
binding result [4]: binds

B3: DNA 18bp (CN3/CN4) (dsDNA)
DNA 1: GTTATCCGAGCGTGAGAC
DNA 2: GTCTCACGCTCGGATAAC
Kd [5]: 4.1 ± 0.7 nM

B4: hDNA (CN1/CN2 hairpin DNA) (structured_DNA)
DNA 1: CGCGCCCAGCTTTCCCAGCTAATAAACTAAAAAC
DNA 2: GTTTTTAGTTTATTGGGCGCG
binding result [6]: binds
binding result [7]: binds
binding result [8]: binds
